From ChEMBL document CHEMBL3272017, “Adrenergic sulfonanilides. 4. Centrally active beta-adrenergic agonists” (J Med Chem, 1976)
Activity calls are given as the source filed them. No cut-off for these calls is given here.

Assays:
[1] = system: Rattus norvegicus; assay: Antagonism of morphine-induced analgesia in rat at 20 mg/kg, sc; assay type: functional
[2] = system: Mus musculus; assay: Analgesic activity in sc dosed mouse assessed as reduction in phenylalanine-induced writhing; assay type: functional
[3] = system: Hypothalamus; assay: Drug uptake in Sprague-Dawley rat hypothalamus at 0.2 mg/kg, ip after 30 mins; assay type: ADME, organism-based; parameters: dose 0.2 mg/kg, route intraperitoneal; settings: in vivo, 0.5 h
[4] = system: Brain; assay: Drug uptake in Sprague-Dawley rat whole brain at 0.2 mg/kg, ip after 30 mins; assay type: ADME, organism-based; parameters: dose 0.2 mg/kg, route intraperitoneal; settings: in vivo, 0.5 h
[5] = system: Hypothalamus; assay: Drug uptake in Sprague-Dawley rat hypothalamus at 0.3 mg/kg, ip after 30 mins; assay type: ADME, organism-based; parameters: dose 0.3 mg/kg, route intraperitoneal; settings: in vivo, 0.5 h
[6] = species on record: Cavia porcellus; assay: Agonist activity at beta-adrenoceptor in guinea pig tracheal spiral assessed as potency for 75% relaxation of spontaneous contraction relative to soterenol; assay type: tissue-based; settings: Trachea
[7] = species on record: Rattus norvegicus; settings: Tail
[8] = Activity at alpha-adrenoceptor in rat seminal vesicle assessed as potency for producing 50% of that of l-epinephrine-induced contraction relative to soterenol; assay type: tissue-based
[9] = system: Mus musculus; assay: Inhibition of reserpine-induced ptosis in po dosed mouse at 25 mg/kg, po; assay type: functional, organism-based; parameters: dose 25 mg/kg
[10] = system: Rattus norvegicus; assay: Antagonism of morphine-induced analgesia in sc dosed rat
[11] = Blockade of alpha-adrenoceptor in rat seminal vesicle relative to phentolamine; assay type: tissue-based
[12] = species on record: Rattus norvegicus; assay: Anorexiant activity in rat by free feeding method relative to d-amphetamine; assay type: functional
[13] = species on record: Canis familiaris; assay: Anorexiant activity in dog by free feeding method relative to d-amphetamine; assay type: functional, Canis lupus familiaris
[14] = system: Mus musculus; assay: Inhibition of reserpine-induced ptosis in po dosed mouse; assay type: functional
[15] = system: Mus musculus; assay: Reversal of reserpine-induced ptosis in po dosed mouse; assay type: functional; settings: Mus musculus, po; read-out: ED50
[16] = system: Rattus norvegicus; assay: Analgesic activity in sc dosed rat by tail flick test; assay type: functional
[17] = Mus musculus, sc, read-out: ED50
[18] = Mus musculus, po, read-out: ED50

| SMILES | fold change (FC) [8] | ED50 [2, 17] [mg/kg] | fold change (FC) [6] | ED50 [14, 18] [mg/kg] | ED50 [15] [mg/kg] | other results |
| --- | --- | --- | --- | --- | --- | --- |
| CS(=O)(=O)Nc1ccc(C(O)CNC2CC2)cc1 (stereo unspecified) | – | – | – | – | – | Activity [1]: inactive |
| Cl.Oc1ccc(CCNC2CC2)cc1O | – | > 6 | – | – | – | Activity ([1]; route subcutaneous): 32.8% |
| CC(C)NCC(O)c1ccc(O)c(NS(C)(=O)=O)c1.Cl (stereo unspecified) [SOTERENOL HYDROCHLORIDE] | – | – | – | – | – | Drug uptake [3]: Not Active; Drug uptake [4]: Not Active; Drug uptake [5]: Active |
| Oc1ccc(C(O)CNC2CC2)cc1 (stereo unspecified) | – | 5.6 | 0.0136 | – | – | Activity [1]: inactive; ED50 [7]: inactive |
| CS(=O)(=O)Nc1cc(C(O)CNC2(Cc3ccccc3)CC2)ccc1O.Cl (stereo unspecified) | – | – | 0.14 | 0.15 | 0.32 | ED50 [10]: 4.7 mg/kg |
| CCN(CC(O)c1ccc(O)c(NS(C)(=O)=O)c1)C1CC1.Cl (stereo unspecified) | – | > 6 | – | – | – | Activity [1]: inactive |
| C[C@H](NC1CC1)[C@H](O)c1ccc(O)c(NS(C)(=O)=O)c1.Cl (relative stereo) | – | – | 0.11 | 0.51 | 0.76 | Activity [1]: inactive |
| CC(C)NCC(O)c1ccc(O)c(NS(C)(=O)=O)c1 (stereo unspecified) [SOTERENOL] | – | > 40 | – | 7.6 | 16.5 | – |
| CS(=O)(=O)Nc1cc(C(O)CNC2CC2)ccc1O.Cl (stereo unspecified) | – | – | – | – | – | Drug uptake [3]: Not Active; Drug uptake [4]: Not Active; Drug uptake [5]: Active |
| CC1(NCC(O)c2ccc(O)c(NS(C)(=O)=O)c2)CC1.Cl (stereo unspecified) | – | – | 2.33 | 0.52 | 1.1 | ED50 [10]: 1 mg/kg |
| CS(=O)(=O)Nc1cc(O)cc(C(O)CNC2CC2)c1.Cl (stereo unspecified) | – | – | – | – | – | Activity [6]: inactive; Activity [8]: Not Active |
| CN(C)CCCN1c2ccccc2CCc2ccccc21.Cl [IMIPRAMINE HYDROCHLORIDE] | – | – | – | 4.97 | > 320 | – |

Continued, in another order:

| fold change (FC) [8] | SMILES | ED50 [2, 17] [mg/kg] | fold change (FC) [6] | ED50 [14, 18] [mg/kg] | ED50 [15] [mg/kg] | other results |
| --- | --- | --- | --- | --- | --- | --- |
| 0 | CC(C)(Cc1ccccc1)NCC(O)c1ccc(O)c(NS(C)(=O)=O)c1.Cl (stereo unspecified) [ZINTEROL HYDROCHLORIDE] | – | 7.9 | – | – | inhibition [9]: inactive; ED50 [10]: 18.8 mg/kg; fold change (FC) [11]: 0.1; fold change (FC) [12]: 11; fold change (FC) [13]: 11; ED50 [7]: inactive |
| 0 | CS(=O)(=O)Nc1cc(C(O)CNC2CC2)ccc1O.Cl (stereo in doubt; 46) | – | – | – | – | ED50 [2]: >50 mg/kg; ED50 [14]: 31.3 mg/kg |
| 8.7 | Cc1cc(C(O)CNC2CC2)cc(NS(C)(=O)=O)c1O.Cl (stereo unspecified) | – | 5.8e-05 | 0.15 | 0.67 | Activity ([1]; route subcutaneous): 20.8% |
| 0 | CC[C@H](NC1CC1)[C@H](O)c1ccc(O)c(NS(C)(=O)=O)c1.Cl (relative stereo) | > 6 | 0.23 | 20 | 8.9 | Activity [1]: inactive; fold change (FC) [11]: 0.000045 |
| 4.9 | CS(=O)(=O)Nc1cc(C(O)CNC2CC2)cc(Cl)c1O.Cl (stereo unspecified) | > 6 | 0.048 | 0.072 | 0.082 | Activity ([1]; route subcutaneous): 20.8% |
| 68.8 | CS(=O)(=O)Nc1cc(C(O)CNC2CC2)ccc1O.Cl (stereo in doubt; 44) | – | – | – | 0.255 | ED50 [2]: 0.56 mg/kg; ED50 [16]: 5 mg/kg; ED50 [14]: 0.265 mg/kg; ED50 [10]: 0.275 mg/kg; fold change (FC) [12]: 22; fold change (FC) [13]: 22 |
